Assays:
[1] = tested on: Tyrosine-protein kinase ABL1 (Homo sapiens), P00519 [Q252H]; conditions: Compound concentration 1000.0 nM
[2] = tested on: Tyrosine-protein kinase ABL1 (Homo sapiens), P00519 [Y253F]; conditions: Compound concentration 1000.0 nM
[3] = target: Tyrosine-protein kinase ABL1 (Homo sapiens) (UniProt P00519); conditions: Compound concentration 1000.0 nM
[4] = target: Tyrosine-protein kinase ABL2 (Homo sapiens) (UniProt P42684); conditions: Compound concentration 1000.0 nM
[5] = target: Activin receptor type-1 (Homo sapiens) (UniProt Q04771); conditions: Compound concentration 1000.0 nM
Activin receptor type-1 (Homo sapiens), sequence (Q04771 whole entry): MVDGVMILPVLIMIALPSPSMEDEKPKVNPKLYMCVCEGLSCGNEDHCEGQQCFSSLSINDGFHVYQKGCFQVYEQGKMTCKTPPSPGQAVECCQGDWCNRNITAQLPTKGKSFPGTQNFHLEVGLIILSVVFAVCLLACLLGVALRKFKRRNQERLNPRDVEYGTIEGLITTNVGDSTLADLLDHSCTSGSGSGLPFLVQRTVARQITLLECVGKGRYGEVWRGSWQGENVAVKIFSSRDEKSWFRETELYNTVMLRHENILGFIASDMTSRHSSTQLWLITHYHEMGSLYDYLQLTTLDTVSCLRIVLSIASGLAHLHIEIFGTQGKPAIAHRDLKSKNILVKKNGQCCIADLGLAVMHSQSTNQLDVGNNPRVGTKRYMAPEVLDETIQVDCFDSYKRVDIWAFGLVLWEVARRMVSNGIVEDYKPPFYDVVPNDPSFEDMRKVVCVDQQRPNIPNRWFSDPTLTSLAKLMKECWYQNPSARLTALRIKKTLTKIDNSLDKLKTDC

[6] = target: ALK tyrosine kinase receptor (Homo sapiens) (UniProt Q9UM73); conditions: Compound concentration 1000.0 nM
ALK tyrosine kinase receptor (Homo sapiens), sequence (Q9UM73 19-1620 limits assumed): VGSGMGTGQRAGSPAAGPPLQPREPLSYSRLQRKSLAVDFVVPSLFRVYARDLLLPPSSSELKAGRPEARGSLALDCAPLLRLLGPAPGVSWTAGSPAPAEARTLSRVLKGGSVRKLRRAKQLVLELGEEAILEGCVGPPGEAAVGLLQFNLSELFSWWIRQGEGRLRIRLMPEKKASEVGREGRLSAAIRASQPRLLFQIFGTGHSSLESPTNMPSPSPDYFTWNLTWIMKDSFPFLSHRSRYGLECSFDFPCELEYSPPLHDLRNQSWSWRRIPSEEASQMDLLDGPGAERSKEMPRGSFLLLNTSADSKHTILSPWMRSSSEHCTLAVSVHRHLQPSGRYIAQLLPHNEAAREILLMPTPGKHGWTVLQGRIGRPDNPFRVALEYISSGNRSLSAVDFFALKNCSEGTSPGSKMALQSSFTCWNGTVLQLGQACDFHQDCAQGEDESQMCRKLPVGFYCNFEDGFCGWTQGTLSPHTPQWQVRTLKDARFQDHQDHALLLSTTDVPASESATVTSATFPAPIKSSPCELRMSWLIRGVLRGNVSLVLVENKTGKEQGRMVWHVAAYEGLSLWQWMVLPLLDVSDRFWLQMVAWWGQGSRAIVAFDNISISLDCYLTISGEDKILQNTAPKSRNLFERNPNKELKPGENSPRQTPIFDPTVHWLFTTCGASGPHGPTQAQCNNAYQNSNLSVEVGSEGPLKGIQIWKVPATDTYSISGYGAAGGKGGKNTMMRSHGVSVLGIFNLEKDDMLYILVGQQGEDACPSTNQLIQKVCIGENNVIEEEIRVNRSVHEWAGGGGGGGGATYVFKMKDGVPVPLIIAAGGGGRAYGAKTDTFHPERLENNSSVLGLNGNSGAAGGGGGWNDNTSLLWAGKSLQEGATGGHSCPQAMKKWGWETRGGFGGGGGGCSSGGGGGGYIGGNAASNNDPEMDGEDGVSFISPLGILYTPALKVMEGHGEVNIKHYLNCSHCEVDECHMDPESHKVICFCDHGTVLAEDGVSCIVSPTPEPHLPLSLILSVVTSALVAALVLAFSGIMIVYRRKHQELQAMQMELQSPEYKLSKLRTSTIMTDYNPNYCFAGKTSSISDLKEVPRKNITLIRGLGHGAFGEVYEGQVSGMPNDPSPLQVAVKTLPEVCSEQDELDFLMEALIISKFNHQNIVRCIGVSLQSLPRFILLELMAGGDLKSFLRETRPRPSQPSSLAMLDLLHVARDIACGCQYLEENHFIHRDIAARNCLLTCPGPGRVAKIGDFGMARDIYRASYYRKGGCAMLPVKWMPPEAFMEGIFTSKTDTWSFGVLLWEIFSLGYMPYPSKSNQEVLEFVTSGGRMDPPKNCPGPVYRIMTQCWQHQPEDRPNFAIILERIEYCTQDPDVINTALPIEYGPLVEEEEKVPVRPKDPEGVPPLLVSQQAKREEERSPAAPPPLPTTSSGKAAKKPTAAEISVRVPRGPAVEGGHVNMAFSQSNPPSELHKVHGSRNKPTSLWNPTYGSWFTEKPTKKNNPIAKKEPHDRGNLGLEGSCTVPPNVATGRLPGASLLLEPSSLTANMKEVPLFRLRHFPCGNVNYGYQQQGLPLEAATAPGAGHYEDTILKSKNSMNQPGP

[7] = target: 5'-AMP-activated protein kinase catalytic subunit alpha-1 (Homo sapiens) (UniProt Q13131); conditions: Compound concentration 1000.0 nM
[8] = target: Tyrosine-protein kinase Blk (Homo sapiens) (UniProt P51451); conditions: Compound concentration 1000.0 nM
Tyrosine-protein kinase Blk (Homo sapiens), sequence (P51451 2-505 limits assumed): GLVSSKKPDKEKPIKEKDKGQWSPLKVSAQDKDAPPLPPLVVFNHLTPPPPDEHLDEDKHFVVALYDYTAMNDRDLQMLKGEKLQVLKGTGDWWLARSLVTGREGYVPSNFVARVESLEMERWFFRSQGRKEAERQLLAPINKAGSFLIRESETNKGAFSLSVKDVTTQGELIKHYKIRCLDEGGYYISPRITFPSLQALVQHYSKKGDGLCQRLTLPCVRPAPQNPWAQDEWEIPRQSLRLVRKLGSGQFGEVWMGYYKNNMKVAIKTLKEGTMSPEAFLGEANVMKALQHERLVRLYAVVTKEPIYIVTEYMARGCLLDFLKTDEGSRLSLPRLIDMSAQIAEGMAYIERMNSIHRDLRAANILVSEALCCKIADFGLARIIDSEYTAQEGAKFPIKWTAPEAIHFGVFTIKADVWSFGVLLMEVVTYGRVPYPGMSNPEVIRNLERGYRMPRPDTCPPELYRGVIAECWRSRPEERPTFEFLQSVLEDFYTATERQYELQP

[9] = target: Cyclin-dependent kinase 11A (Homo sapiens) (UniProt Q9UQ88); conditions: Compound concentration 1000.0 nM
[10] = target: Cyclin-dependent kinase 4 (Homo sapiens) (UniProt P11802); conditions: Compound concentration 1000.0 nM
Cyclin-dependent kinase 4 (Homo sapiens), sequence (P11802 whole entry): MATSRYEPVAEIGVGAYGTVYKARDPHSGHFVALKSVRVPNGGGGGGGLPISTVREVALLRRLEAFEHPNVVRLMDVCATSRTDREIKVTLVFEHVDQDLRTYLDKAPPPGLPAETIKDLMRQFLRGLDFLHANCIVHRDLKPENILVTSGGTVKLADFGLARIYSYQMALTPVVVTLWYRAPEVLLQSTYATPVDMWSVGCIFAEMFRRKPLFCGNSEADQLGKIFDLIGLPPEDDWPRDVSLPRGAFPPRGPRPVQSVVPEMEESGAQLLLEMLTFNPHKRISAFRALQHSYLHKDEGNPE

[11] = target: Dual specificity tyrosine-phosphorylation-regulated kinase 1A (Homo sapiens) (UniProt Q13627); conditions: Compound concentration 1000.0 nM
[12] = target: Epidermal growth factor receptor (Homo sapiens) (UniProt P00533); conditions: Compound concentration 1000.0 nM
[13] = tested on: Epidermal growth factor receptor (Homo sapiens), P00533 [L858R,T790M]; conditions: Compound concentration 1000.0 nM
[14] = tested on: Receptor-type tyrosine-protein kinase FLT3 (Homo sapiens), P36888 [D835H]; conditions: Compound concentration 1000.0 nM
[15] = target: G protein-coupled receptor kinase 3 (Homo sapiens) (UniProt P35626); conditions: Compound concentration 1000.0 nM
[16] = target: G protein-coupled receptor kinase 4 (Homo sapiens) (UniProt P32298); conditions: Compound concentration 1000.0 nM
[17] = target: Serine/threonine-protein kinase ICK (Homo sapiens) (UniProt Q9UPZ9); conditions: Compound concentration 1000.0 nM
[18] = target: Insulin-like growth factor 1 receptor (Homo sapiens) (UniProt P08069); conditions: Compound concentration 1000.0 nM
[19] = target: Interleukin-1 receptor-associated kinase 1 (Homo sapiens) (UniProt P51617); conditions: Compound concentration 1000.0 nM
[20] = target: Mitogen-activated protein kinase 9 (Homo sapiens) (UniProt P45984); conditions: Compound concentration 1000.0 nM
Mitogen-activated protein kinase 9 (Homo sapiens), sequence (P45984 whole entry, looked up): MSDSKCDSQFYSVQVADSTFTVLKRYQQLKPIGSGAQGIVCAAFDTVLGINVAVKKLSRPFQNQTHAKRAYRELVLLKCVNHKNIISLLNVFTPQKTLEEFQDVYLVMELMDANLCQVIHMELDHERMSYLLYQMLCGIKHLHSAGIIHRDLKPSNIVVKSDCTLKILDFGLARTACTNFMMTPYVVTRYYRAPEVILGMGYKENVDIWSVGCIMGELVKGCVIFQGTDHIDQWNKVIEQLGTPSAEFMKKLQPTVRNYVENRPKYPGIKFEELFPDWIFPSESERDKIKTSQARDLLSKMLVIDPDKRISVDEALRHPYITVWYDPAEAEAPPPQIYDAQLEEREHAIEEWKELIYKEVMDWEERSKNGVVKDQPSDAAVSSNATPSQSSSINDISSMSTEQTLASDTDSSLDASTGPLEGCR

[21] = tested on: Leucine-rich repeat serine/threonine-protein kinase 2 (Homo sapiens), Q5S007 [G2019S]; conditions: Compound concentration 1000.0 nM
[22] = target: Dual specificity mitogen-activated protein kinase kinase 1 (Homo sapiens) (UniProt Q02750); conditions: Compound concentration 1000.0 nM
[23] = target: Tyrosine-protein kinase Mer (Homo sapiens) (UniProt Q12866); conditions: Compound concentration 1000.0 nM
[24] = target: Mitogen-activated protein kinase kinase kinase 10 (Homo sapiens) (UniProt Q02779); conditions: Compound concentration 1000.0 nM
[25] = target: Muscle, skeletal receptor tyrosine-protein kinase (Homo sapiens) (UniProt O15146); conditions: Compound concentration 1000.0 nM
[26] = tested on: Phosphatidylinositol 4,5-bisphosphate 3-kinase catalytic subunit alpha isoform (Homo sapiens), P42336 [E542K]; conditions: Compound concentration 1000.0 nM
[27] = target: Protein kinase C iota type (Homo sapiens) (UniProt P41743); conditions: Compound concentration 1000.0 nM
Protein kinase C iota type (Homo sapiens), sequence (P41743 whole entry): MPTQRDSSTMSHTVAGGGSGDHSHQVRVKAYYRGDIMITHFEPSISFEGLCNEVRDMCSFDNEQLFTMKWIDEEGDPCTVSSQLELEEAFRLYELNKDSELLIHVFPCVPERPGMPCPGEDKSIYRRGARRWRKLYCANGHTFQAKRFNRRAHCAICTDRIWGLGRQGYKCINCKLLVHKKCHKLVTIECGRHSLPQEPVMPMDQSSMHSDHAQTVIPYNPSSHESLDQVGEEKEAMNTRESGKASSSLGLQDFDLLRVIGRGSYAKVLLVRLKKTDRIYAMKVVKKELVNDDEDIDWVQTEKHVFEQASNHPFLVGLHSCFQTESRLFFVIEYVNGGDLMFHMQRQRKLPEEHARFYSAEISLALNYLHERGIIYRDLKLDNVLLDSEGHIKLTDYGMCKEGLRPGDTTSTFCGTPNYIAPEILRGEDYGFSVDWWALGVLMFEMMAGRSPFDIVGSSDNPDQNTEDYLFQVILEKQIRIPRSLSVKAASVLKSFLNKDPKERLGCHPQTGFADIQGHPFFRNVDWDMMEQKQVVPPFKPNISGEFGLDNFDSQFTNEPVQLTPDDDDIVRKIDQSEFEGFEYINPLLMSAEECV

[28] = tested on: Proto-oncogene tyrosine-protein kinase receptor Ret (Homo sapiens), P07949 [M918T]; conditions: Compound concentration 1000.0 nM
[29] = tested on: Proto-oncogene tyrosine-protein kinase receptor Ret (Homo sapiens), P07949 [V804L]; conditions: Compound concentration 1000.0 nM
[30] = target: Ribosomal protein S6 kinase alpha-3 (Homo sapiens) (UniProt P51812); conditions: Compound concentration 1000.0 nM
[31] = target: Serine/threonine-protein kinase 36 (Homo sapiens) (UniProt Q9NRP7); conditions: Compound concentration 1000.0 nM
[32] = target: Serine/threonine-protein kinase tousled-like 1 (Homo sapiens) (UniProt Q9UKI8); conditions: Compound concentration 1000.0 nM
[33] = target: NT-3 growth factor receptor (Homo sapiens) (UniProt Q16288); conditions: Compound concentration 1000.0 nM
NT-3 growth factor receptor (Homo sapiens), sequence (Q16288 32-839 limits assumed): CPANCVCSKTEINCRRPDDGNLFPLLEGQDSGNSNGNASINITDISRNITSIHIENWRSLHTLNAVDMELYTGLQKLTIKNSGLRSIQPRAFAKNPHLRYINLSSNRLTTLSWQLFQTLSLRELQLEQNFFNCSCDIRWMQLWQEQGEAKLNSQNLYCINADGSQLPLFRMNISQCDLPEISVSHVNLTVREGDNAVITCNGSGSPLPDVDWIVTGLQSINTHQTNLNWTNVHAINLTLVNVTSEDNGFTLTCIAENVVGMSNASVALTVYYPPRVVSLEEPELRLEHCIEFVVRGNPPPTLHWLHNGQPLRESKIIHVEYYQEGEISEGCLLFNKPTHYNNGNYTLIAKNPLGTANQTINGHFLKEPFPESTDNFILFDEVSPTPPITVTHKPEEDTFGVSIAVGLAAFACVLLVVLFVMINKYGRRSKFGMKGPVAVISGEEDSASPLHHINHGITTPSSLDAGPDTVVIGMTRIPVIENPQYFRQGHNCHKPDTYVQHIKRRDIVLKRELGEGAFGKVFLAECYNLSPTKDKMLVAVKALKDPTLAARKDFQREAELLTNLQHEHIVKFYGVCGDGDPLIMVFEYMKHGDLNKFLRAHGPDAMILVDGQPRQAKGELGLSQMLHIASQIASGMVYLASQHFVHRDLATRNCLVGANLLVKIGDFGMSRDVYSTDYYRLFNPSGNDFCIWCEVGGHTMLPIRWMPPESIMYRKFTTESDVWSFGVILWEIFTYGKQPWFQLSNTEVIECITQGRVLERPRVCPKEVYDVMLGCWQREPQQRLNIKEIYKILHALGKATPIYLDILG

[34] = target: Testis-specific serine/threonine-protein kinase 1 (Homo sapiens) (UniProt Q9BXA7); conditions: Compound concentration 1000.0 nM
[35] = target: Tyrosine-protein kinase receptor TYRO3 (Homo sapiens) (UniProt Q06418); conditions: Compound concentration 1000.0 nM
[36] = target: Serine/threonine-protein kinase 25 (Homo sapiens) (UniProt O00506); conditions: Compound concentration 1000.0 nM
[37] = target: 5-hydroxytryptamine receptor 2B (Homo sapiens) (UniProt P41595); conditions: Compound concentration 10.0 uM
[38] = target: D(1A) dopamine receptor (Homo sapiens) (UniProt P21728); conditions: Compound concentration 10.0 uM
[39] = target: T1, Alpha-2C adrenergic receptor (Homo sapiens) (UniProt P18825); conditions: Compound concentration 10.0 uM
T1 sequence (whole entry): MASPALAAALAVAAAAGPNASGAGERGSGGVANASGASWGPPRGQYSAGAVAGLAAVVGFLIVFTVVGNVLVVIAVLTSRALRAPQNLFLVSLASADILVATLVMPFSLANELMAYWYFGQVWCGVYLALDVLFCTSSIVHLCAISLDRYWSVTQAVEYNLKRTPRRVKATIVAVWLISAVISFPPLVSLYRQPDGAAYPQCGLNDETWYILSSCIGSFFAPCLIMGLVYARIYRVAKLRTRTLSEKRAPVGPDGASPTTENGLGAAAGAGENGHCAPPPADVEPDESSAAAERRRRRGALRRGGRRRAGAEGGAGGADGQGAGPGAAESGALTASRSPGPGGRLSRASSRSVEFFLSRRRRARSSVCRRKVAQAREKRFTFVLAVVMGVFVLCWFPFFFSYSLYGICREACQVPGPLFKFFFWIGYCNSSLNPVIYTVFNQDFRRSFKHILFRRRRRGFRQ

Compound	residual activity [1]	residual activity [2]	residual activity [3]	residual activity [4]	residual activity [5]	residual activity [6]	residual activity [7]	residual activity [8]	residual activity [9]	residual activity [10]	residual activity [11]	residual activity [12]	residual activity [13]	residual activity [14]	residual activity [15]	residual activity [16]	residual activity [17]	residual activity [18]	residual activity [19]	residual activity [20]	also measured
C[C@H](c1cccc(C#N)c1)n1cc(Cl)cc(C(N)=O)c1=N [(R)-9s]	100%	88%	100%	90%	88%	79%	92%	78%	100%	96%	65%	100%	89%	80%	76%	100%	98%	100%	71%	96%	residual activity [21]: 100%; residual activity [22]: 75%; residual activity [23]: 96%; residual activity [24]: 100%; residual activity [25]: 100%; residual activity [26]: 77%; residual activity [27]: 100%; residual activity [28]: 91%; residual activity [29]: 87%; residual activity [30]: 95%; residual activity [31]: 75%; residual activity [32]: 94%; residual activity [33]: 96%; residual activity [34]: 96%; residual activity [35]: 33%; residual activity [36]: 100%; inhibition [37]: 9.88%; inhibition [38]: 1.16%; inhibition [39]: 42.7%
C[C@@H](c1cccc(C#N)c1)n1cc(Cl)cc(C(N)=O)c1=N [(S)-9s]	68%	85%	82%	84%	96%	83%	100%	85%	90%	91%	75%	100%	86%	81%	81%	99%	81%	96%	76%	82%	residual activity [21]: 100%; residual activity [22]: 80%; residual activity [23]: 82%; residual activity [24]: 77%; residual activity [25]: 100%; residual activity [26]: 89%; residual activity [27]: 93%; residual activity [28]: 100%; residual activity [29]: 86%; residual activity [30]: 94%; residual activity [31]: 94%; residual activity [32]: 100%; residual activity [33]: 0%; residual activity [34]: 100%; residual activity [35]: 68%; residual activity [36]: 100%; inhibition [37]: 3.93%; inhibition [38]: -6.15%; inhibition [39]: 3.93%

Reference: ChEMBL document CHEMBL4507301 (2021)
